Results as given in publication PMC11711195, “The non-nutritive sweetener rebaudioside a enhances phage infectivity” (Scientific Reports, 2025).

Biological target: T1, gp31 (Klebsiella phage KP32, UniProt D1L2W4)
T1 construct: gene 31; recombinant from bacterial expression, His-tag (and MBP) removed by TEV protease
T1 sequence (D1L2W4 1-192): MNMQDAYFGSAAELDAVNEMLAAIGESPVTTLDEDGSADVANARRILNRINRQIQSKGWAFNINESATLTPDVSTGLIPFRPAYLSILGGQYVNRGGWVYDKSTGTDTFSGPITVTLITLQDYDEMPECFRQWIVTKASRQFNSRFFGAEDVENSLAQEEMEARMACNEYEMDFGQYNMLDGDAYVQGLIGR
Experiment: RedStarch hydrolysis, absorbance […] nm
Format: biochemical
Details: activator; RedStarch 2% w/v stock; 50 µL gp31 4.673 µM plus 50 µL rebA 14.019 µM; 20 °C, 72 h

SMILES: C=C1C[C@@]23CC[C@H]4[C@@](C)(CCC[C@@]4(C)C(=O)O[C@@H]4O[C@H](CO)[C@@H](O)[C@H](O)[C@H]4O)[C@@H]2CC[C@]1(O[C@@H]1O[C@H](CO)[C@@H](O)[C@H](O[C@@H]2O[C@H](CO)[C@@H](O)[C@H](O)[C@H]2O)[C@H]1O[C@@H]1O[C@H](CO)[C@@H](O)[C@H](O)[C@H]1O)C3 [rebA]
- increment of activity: 51.14%
